Test results as given in paper PMC6112376, “Comprehensive Analyses and Prioritization of Tox21 10K Chemicals Affecting Mitochondrial Function by in-Depth Mechanistic Studies” (Environmental Health Perspectives, 2018).

Assays:
[1] = tested on: HeLa cells expressing YFP-Parkin; test: Parkin translocation assay; assay type: cell-based, human; settings: HeLa cells stably expressing YFP-Parkin; treated for 2 h
HepG2 cells [2] = test: ROS-Glo hydrogen peroxide (ROS) assay; assay type: cell-based, human; settings: Homo sapiens, HepG2; 2 h treatment; mean±SD of three experiments; read-out: ROS (HepG2) EC50
HepG2 cells [3] = test: Intracellular ATP content (cell viability) assay; assay type: cell-based, human; settings: Homo sapiens, HepG2, 40 h treatment, mean±SD of three experiments
[4] = tested on: Caenorhabditis elegans (Bristol N2); test: C. elegans larval development and growth assay; settings: 48 h exposure
[5] = tested on: Nrf2/ARE (ARE-bla HepG2 cells); test: ARE β-lactamase reporter gene assay; assay type: cell-based, human; settings: 16 h incubation; mean±SD of three experiments
rat primary hepatocytes = test: MMP assay in rat primary hepatocytes; settings: for Rat hepatocytes (efficacy) (MMP): % of positive control, mean±SD of three experiments; for IC50: Rattus norvegicus, Hepatocyte, 1 h, read-out: Rat hepatocytes IC50 (MMP)
[6] = tested on: p53 (p53-bla HCT-116 cells); test: p53 β-lactamase reporter gene assay; assay type: cell-based, human; settings: 16 h incubation; mean±SD of three experiments
hNSC = test: MMP assay in human neural stem cells (hNSC); assay type: cell-based; settings: Homo sapiens, Neural stem cell; 1 h treatment; fresh re-sourced stocks; mean±SD of three experiments; read-out: hNSC IC50 (MMP)
HepG2 cells [7] = test: cells; settings: Homo sapiens, HepG2, 1 h
[8] = 5 mM glucose, read-out: ATP (HepG2, glucose) IC50
[9] = 10 mM galactose, read-out: ATP (HepG2, galactose) IC50
[10] = read-out: HepG2 IC50 Galactose (MMP)
[11] = read-out: HepG2 IC50 Glucose (MMP)

Row | SMILES | Parkin recruitment [1] | EC50 (HepG2 cells [2]) | IC50 (HepG2 cells [3]; [8]) | IC50 (HepG2 cells [3]; [9]) | LEC (lowest effect concentration), larval growth assay [4] | ARE (HepG2) EC50 [5] | Rat hepatocytes (efficacy) (MMP) (rat primary hepatocytes) | IC50 (rat primary hepatocytes) | p53 (HCT-116) EC50 [6] | IC50 (hNSC) | IC50 (HepG2 cells [7]; [10]) | IC50 (HepG2 cells [7]; [11])
1 | CCc1cc(Cc2cc(CC)cc(C(C)(C)C)c2O)c(O)c(C(C)(C)C)c1 | Inactive | 29.6 ± 4.08 µM | 21.6 ± 13.8 µM | 29.8 ± 7.25 µM | ≤ 10 µM | Inactive | −103±17.9% | 29.9 ± 7.25 µM | Inactive | 1.28 ± 0.56 µM | 6.3 ± 0.43 µM | 5.42 ± 0.62 µM
2 | Cc1cc(Cc2cc(C)cc(C(C)(C)C)c2O)c(O)c(C(C)(C)C)c1 [2,2′-Methylenebis(4-methyl-6-tert-butylphenol)] | Inactive | 31.4 ± 10.1 µM | 34.1 ± 3.93 µM | 34 µM | ≤ 10 µM | Inactive | −121±16.7% | 6.89 ± 1.44 µM | Inactive | 0.88 ± 0.25 µM | 6.6 ± 1.12 µM | 5.67 ± 1.02 µM
